In PubChem BioAssay AID2060601 (Molecular Pharmacology Branch, DTP, NCI, 2025):

System: 874868-142-R-J2-PDC complex spheroids, growth % test/control
Assay: Anticancer human tumor 874868-142-R-J2-PDC patient-derived head and neck squamous carcinoma cell line growth inhibition [CLK]
Settings: for IC50: curve of first compound; for viability, T/C: stronger effect = lower value
How it was run: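 Multi-cell-type spheroids combined patient-derived tumor cells with HUVEC endothelial cells and human mesenchymal stem cells. Paired agents were dosed in half-log steps down from about clinical Cmax, or from 10 microM where Cmax was unknown.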
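Note: spheroids exposed to the compounds for 7 days.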
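Throughout, for viability, T/C: 100% = DMSO vehicle control viability.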

With `NC(=O)C(=Cn1cnc(-c2cc(C(F)(F)F)cc(C(F)(F)F)c2)n1)c1cncnc1` + CNC(=O)c1ccc(Nc2nc(OC3CCCC3)c3c(-c4ccc5nc(C)oc5c4)c[nH]c3n2)c(OC)c1 the IC50 (second compound 0.0316 µM) was 0.0313 µM, the IC50 (second compound 0.1 µM) was 0.0213 µM and the IC50 (second compound 0.316 µM) was less than 0.00949 µM. The IC50 (second compound 1 µM) was less than 0.00949 µM, the IC50 (second compound 3.16 µM) was less than 0.00949 µM and the IC50 (second compound 10 µM) was less than 0.00949 µM. For the same compound, the viability, T/C (second compound 0.0316 µM, first compound 0.00949 µM) was 70.8%, the viability, T/C (second compound 0.0316 µM, first compound 0.03 µM) was 49.3% and the viability, T/C (second compound 0.0316 µM, first compound 0.0949 µM) was 28.2%. It also gave a viability, T/C (second compound 0.0316 µM, first compound 0.3 µM) of 6.41%, a viability, T/C (second compound 0.0316 µM, first compound 0.949 µM) of 4.32% and a viability, T/C (second compound 0.0316 µM, first compound 3 µM) of 4.58%. It also gave a viability, T/C (second compound 0.1 µM, first compound 0.00949 µM) of 66.4%, a viability, T/C (second compound 0.1 µM, first compound 0.03 µM) of 40.8% and a viability, T/C (second compound 0.1 µM, first compound 0.0949 µM) of 27.1%. It also gave a viability, T/C (second compound 0.1 µM, first compound 0.3 µM) of 4.57%, a viability, T/C (second compound 0.1 µM, first compound 0.949 µM) of 3.53% and a viability, T/C (second compound 0.1 µM, first compound 3 µM) of 3.49%. The viability, T/C (second compound 0.316 µM, first compound 0.00949 µM) was 45.8%, the viability, T/C (second compound 0.316 µM, first compound 0.03 µM) was 33.4% and the viability, T/C (second compound 0.316 µM, first compound 0.0949 µM) was 17.1%. For the same compound, the viability, T/C (second compound 0.316 µM, first compound 0.3 µM) was 2.51%, the viability, T/C (second compound 0.316 µM, first compound 0.949 µM) was 4.77% and the viability, T/C (second compound 0.316 µM, first compound 3 µM) was 2.89%. The viability, T/C (second compound 1 µM, first compound 0.00949 µM) was 34%, the viability, T/C (second compound 1 µM, first compound 0.03 µM) was 19.8% and the viability, T/C (second compound 1 µM, first compound 0.0949 µM) was 14.9%. The viability, T/C (second compound 1 µM, first compound 0.3 µM) was 2.12%, the viability, T/C (second compound 1 µM, first compound 0.949 µM) was 1% and the viability, T/C (second compound 1 µM, first compound 3 µM) was 4.53%. The viability, T/C (second compound 3.16 µM, first compound 0.00949 µM) was 35.6%, the viability, T/C (second compound 3.16 µM, first compound 0.03 µM) was 19.2% and the viability, T/C (second compound 3.16 µM, first compound 0.0949 µM) was 12.4%. The viability, T/C (second compound 3.16 µM, first compound 0.3 µM) was 1.32%, the viability, T/C (second compound 3.16 µM, first compound 0.949 µM) was 6.47% and the viability, T/C (second compound 3.16 µM, first compound 3 µM) was 0.18%. For the same compound, the viability, T/C (second compound 10 µM, first compound 0.00949 µM) was 36%, the viability, T/C (second compound 10 µM, first compound 0.03 µM) was 18.8% and the viability, T/C (second compound 10 µM, first compound 0.0949 µM) was 3.67%. It also gave a viability, T/C (second compound 10 µM, first compound 0.3 µM) of 1.02%, a viability, T/C (second compound 10 µM, first compound 0.949 µM) of 3.87% and a viability, T/C (second compound 10 µM, first compound 3 µM) of 4.53%.

`Nc1ccccc1NC(=O)c1ccc(CNC(=O)OCc2cccnc2)cc1` + CNC(=O)c1ccc(Nc2nc(OC3CCCC3)c3c(-c4ccc5nc(C)oc5c4)c[nH]c3n2)c(OC)c1 gave an IC50 (second compound 0.0316 µM) of 7.27 µM, an IC50 (second compound 0.1 µM) of 7.26 µM and an IC50 (second compound 0.316 µM) of 4.8 µM. The IC50 (second compound 1 µM) was 0.252 µM, the IC50 (second compound 3.16 µM) was 3.95 µM and the IC50 (second compound 10 µM) was 3.44 µM. For the same compound, the viability, T/C (second compound 0.0316 µM, first compound 0.0316 µM) was 107%, the viability, T/C (second compound 0.0316 µM, first compound 0.1 µM) was 87.5% and the viability, T/C (second compound 0.0316 µM, first compound 0.316 µM) was 110%. For the same compound, the viability, T/C (second compound 0.0316 µM, first compound 1 µM) was 114%, the viability, T/C (second compound 0.0316 µM, first compound 3.16 µM) was 109% and the viability, T/C (second compound 0.0316 µM, first compound 10 µM) was 28.7%. The viability, T/C (second compound 0.1 µM, first compound 0.0316 µM) was 82.6%, the viability, T/C (second compound 0.1 µM, first compound 0.1 µM) was 73.7% and the viability, T/C (second compound 0.1 µM, first compound 0.316 µM) was 94.4%. The viability, T/C (second compound 0.1 µM, first compound 1 µM) was 109%, the viability, T/C (second compound 0.1 µM, first compound 3.16 µM) was 101% and the viability, T/C (second compound 0.1 µM, first compound 10 µM) was 33.6%. For the same compound, the viability, T/C (second compound 0.316 µM, first compound 0.0316 µM) was 61.5%, the viability, T/C (second compound 0.316 µM, first compound 0.1 µM) was 61.4% and the viability, T/C (second compound 0.316 µM, first compound 0.316 µM) was 67.8%. The viability, T/C (second compound 0.316 µM, first compound 1 µM) was 79.9%, the viability, T/C (second compound 0.316 µM, first compound 3.16 µM) was 88.9% and the viability, T/C (second compound 0.316 µM, first compound 10 µM) was 11.3%. It also gave a viability, T/C (second compound 1 µM, first compound 0.0316 µM) of 42.4%, a viability, T/C (second compound 1 µM, first compound 0.1 µM) of 45% and a viability, T/C (second compound 1 µM, first compound 0.316 µM) of 52.1%. The viability, T/C (second compound 1 µM, first compound 1 µM) was 66.9%, the viability, T/C (second compound 1 µM, first compound 3.16 µM) was 76.6% and the viability, T/C (second compound 1 µM, first compound 10 µM) was 11.9%. It also gave a viability, T/C (second compound 3.16 µM, first compound 0.0316 µM) of 49.2%, a viability, T/C (second compound 3.16 µM, first compound 0.1 µM) of 47% and a viability, T/C (second compound 3.16 µM, first compound 0.316 µM) of 56.9%. It also gave a viability, T/C (second compound 3.16 µM, first compound 1 µM) of 71.8%, a viability, T/C (second compound 3.16 µM, first compound 3.16 µM) of 72.1% and a viability, T/C (second compound 3.16 µM, first compound 10 µM) of 10.8%. It also gave a viability, T/C (second compound 10 µM, first compound 0.0316 µM) of 41.8%, a viability, T/C (second compound 10 µM, first compound 0.1 µM) of 44% and a viability, T/C (second compound 10 µM, first compound 0.316 µM) of 49%. It also gave a viability, T/C (second compound 10 µM, first compound 1 µM) of 67.3%, a viability, T/C (second compound 10 µM, first compound 3.16 µM) of 69.2% and a viability, T/C (second compound 10 µM, first compound 10 µM) of 3.57%.
